Source: patent publication US12214036B2, “Combination therapy comprising AXL/MER and PD-1/PD-L1 inhibitors” (Incyte Corporation, priority 2020, dated 2025)
pIC50: −log10 of the molar value.

Experiments:
4T1 tumor = test: 4T1 syngeneic tumor model; assay type: in vivo, BALB/c mice
Description: To test potential immunomodulatory activity of Compound 1 in vivo, antitumor efficacy studies were performed in syngeneic tumor models.
MBT-2 cells were obtained from the Japanese Collection of Research Bioresources Cell Bank and were maintained in DMEM supplemented with 10% FBS. MC38 cells were obtained from the NCI. 4T1 cells were obtained from ATCC and maintained in RPMI media supplemented with 10% FBS. For MBT-2 experiments, 5×10^5 MBT-2 cells were inoculated subcutaneously into the right hind flank of 6- to 8-week-old C3H mice or athymic nude mice (Charles River Laboratories, Wilmington, Mass.). For MC38 studies, 12-week old female C57BL/6 mice were inoculated with brei of MC38 tumors (in-vivo passage 6) into the right hind flank. For 4T1 studies, 7.5×10^5 4 T1 cells were inoculated subcutaneously into the right hind flank of 6- to 8-week-old female BALB/c mice or athymic nude mice (Charles River Laboratories). […] Mice were monitored for tumor growth and overt tolerability over the course of the experiment. […] Tumor volume was calculated using the formula (L×W^2)/2, where L and W refer to the length and width dimensions, respectively. Tumor growth inhibition (TGI) was calculated using the formula (1−(VT/VC))×100, where VT is the tumor volume of the treatment group on the last day of treatment, and VC is the tumor volume of the control group on the last day of treatment. […]

parental BAF3 cells = test: Parental BAF3 cell proliferation assay (CellTiter-Glo); assay type: cell-based; conditions: Mus musculus, 48 hours, 2% FBS
Source text: To evaluate the cellular potency and selectivity within the TAM receptor family, mouse BAF3 cell lines with stable expression of AXL, MER, or TYRO3 were generated.
The cytoplasmic domain of AXL, MER, or TYRO3 fused with dimerization sequence and HA tag was cloned into a pMSCV (murine stem cell virus) vector with a puromycin-resistance marker to generate three constructs individually by electroporation into BAF3 cells. Single clones that were IL-3-independent and puromycin-resistant were selected and characterized. To evaluate effects on BAF3 cell proliferation, 1000 cells/well of BAF3, BAF3-AXL, BAF3 MER, or BAF3-TYRO3 cells were treated in the presence or absence of Compound 1 at various concentrations (10 concentration points with a three-fold dilution factor from the highest concentration of 10 μM) diluted in RPMI-1640 with 2% FBS for 48 hours in a 384-well plate. Cell viability was measured by ATP assay (CellTiter-Glo Assay, Promega, Madison, Wis.) according to the manufacturer's procedure. The data were converted to percent inhibition relative to DMSO control, and IC50 curves were fitted using GraphPad Prism software.

## CC(C)C(=O)N1CCC(c2cc(-c3ccc(NC(=O)c4cn(C(C)C)c(=O)n(-c5ccccn5)c4=O)cc3)c3c(N)ncnn23)CC1 [Compound 1, N-(4-(4-Amino-7-(1-isobutyrylpiperidin-4-yl)pyrrolo[1,2-f][1,2,4]triazin-5-yl)phenyl)-1-isopropyl-2,4-dioxo-3-(pyridin-2-yl)-1,2,3,4-tetrahydropyrimidine-5-carboxamide]
4T1 tumor; 4T1 in BALB/c mice, oral BID, FIG. 7B
  antitumor efficacy (tumor volume): dose-dependent efficacy
4T1 tumor; 4T1 tumors, flow cytometry, FIG. 7D
  ratio of M1-like to M2-like macrophages: increased the ratio of M1-like to M2-like macrophages in a dose-dependent manner
Parental BAF3 cells
  pIC50: < 5.40
